# Key:
# Human DAAO = Human DAAO (Homo sapiens, UniProt P14920); assay: D-Amino Acid Oxidase enzyme assay (D-serine, horseradish peroxidase/Amplex Red coupled fluorescence); assay type: biochemical; conditions: D-serine 5 mM, pH 7.4
# Procedure, shortened: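 D-serine substrate at 5 mM (Km), 50 mM sodium phosphate pH 7.4; H2O2 output coupled via 4 U/mL horseradish peroxidase and 50 μM Amplex Red to resorufin fluorescence. Reaction started with enzyme; H2O2 control checked coupling interference; IC50 from inhibition curves.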
# [1] = system: D-serine levels in the cerebellum; assay: In vivo elevation of D-serine levels in the cerebellum; parameters: species or system Mice (C57BL/6); conditions: mice, intraperitoneal;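 also: Cutoffs are cerebellum D-serine in nmol/g wet tissue weight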
# Procedure: […] Animals are sacrificed at either 2 or 6 h post compound administration with an N=3 per time point. At sacrifice, trunk blood is collected into tubes containing potassium EDTA, which are then centrifuged to permit isolation of plasma. The cerebellum is dissected from each animal. Plasma and cerebellum samples are stored at −80° C. until samples are analyzed (LC/MS/MS).
# Sequence of Human DAAO (P14920 whole entry): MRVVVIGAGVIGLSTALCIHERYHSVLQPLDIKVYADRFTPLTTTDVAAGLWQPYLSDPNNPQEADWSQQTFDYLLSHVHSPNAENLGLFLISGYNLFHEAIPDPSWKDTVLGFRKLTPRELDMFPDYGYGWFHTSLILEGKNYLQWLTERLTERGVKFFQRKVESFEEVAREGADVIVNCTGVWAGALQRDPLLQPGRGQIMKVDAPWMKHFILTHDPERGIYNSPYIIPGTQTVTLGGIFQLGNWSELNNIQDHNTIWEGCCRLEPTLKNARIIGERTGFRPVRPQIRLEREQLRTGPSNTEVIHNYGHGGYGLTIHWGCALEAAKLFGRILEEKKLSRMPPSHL
IC50 (Human DAAO) [µM],Compound,Cerebellum D-serine at 2 hours ([1]; dose 30 mg/kg),Cerebellum D-serine at 6 hours ([1]; dose 30 mg/kg),Cerebellum D-serine at 2 hours ([1]; dose 10 mg/kg),Cerebellum D-serine at 6 hours ([1]; dose 10 mg/kg),Cerebellum D-serine at 2 hours ([1]; dose 60 mg/kg),Cerebellum D-serine at 6 hours ([1]; dose 60 mg/kg)
> 100,"CCOC(=O)c1[nH]c2c(c1O)CCC2 [Compound 137, ethyl 3-hydroxy-1,4,5,6-tetrahydrocyclopenta[b]pyrrole-2-carboxylate]",(+) (2.5-4.9 = (+)),(+) (2.5-4.9 = (+)),–,–,–,–
≤ 0.1,"O=C(O)c1cc2c([nH]1)CCC2c1cccc(F)c1 (single isomer, unassigned) [Compound 96, 4-(3-fluorophenyl)-1,4,5,6-tetrahydrocyclopenta[b]pyrrole-2-carboxylic acid]",(+) (2.5-4.9 = (+)),(+) (2.5-4.9 = (+)),–,–,–,–
≤ 0.1,"O=C(O)c1cc2c([nH]1)CCC2Cc1ccc2ccccc2c1 (racemic) [Compound 78, 4-(naphthalen-2-ylmethyl)-1,4,5,6-tetrahydrocyclopenta[b]pyrrole-2-carboxylic acid]",(+) (2.5-4.9 = (+)),(+) (2.5-4.9 = (+)),–,–,–,–
≤ 0.1,"O=C(O)c1cc2c([nH]1)CCC2Cc1ccc(Cl)c(Cl)c1 (single isomer, unassigned) [Compound 59, 4-(3,4-dichlorobenzyl)-1,4,5,6-tetrahydrocyclopenta[b]pyrrole-2-carboxylic acid]",–,–,(+) (2.5-4.9 = (+)),(+) (2.5-4.9 = (+)),–,–
≤ 0.1,"O=C(O)c1cc2c([nH]1)CCC2c1ccc(F)c(F)c1 (stereo not shown) [Compound 97, 4-(3,4-difluorophenyl)-1,4,5,6-tetrahydrocyclopenta[b]pyrrole-2-carboxylic acid]",–,–,–,–,(+) (2.5-4.9 = (+)),(+) (2.5-4.9 = (+))
≤ 0.1,"N#Cc1cccc(C2CCc3[nH]c(C(=O)O)cc32)c1 (stereo not shown) [Compound 105, 4-(3-cyanophenyl)-1,4,5,6-tetrahydrocyclopenta[b]pyrrole-2-carboxylic acid]",–,–,–,–,(−) (<2.5 = (−)),–
≤ 0.1,"O=C(O)c1cc2c([nH]1)CCC2Cc1cccc(F)c1 (stereo not shown) [Compound 54, 4-(3-fluorobenzyl)-1,4,5,6-tetrahydrocyclopenta[b]pyrrole-2-carboxylic acid]",(+) (2.5-4.9 = (+)),(+) (2.5-4.9 = (+)),–,–,–,–
≤ 0.1,"O=C(O)c1cc2c([nH]1)CCC2Cc1cccc(-c2ccc[nH]2)c1 (single isomer, unassigned) [Compound 93, 4-(3-(1H-pyrrol-2-yl)benzyl)-1,4,5,6-tetrahydrocyclopenta[b]pyrrole-2-carboxylic acid]",(+) (2.5-4.9 = (+)),(+) (2.5-4.9 = (+)),–,–,–,–
≤ 0.1,"O=C(O)c1cc2c([nH]1)C(Cc1cc(F)cc(Cl)c1)CC2 (stereo not shown) [Compound 124, 6-(3-chloro-5-fluorobenzyl)-1,4,5,6-tetrahydrocyclopenta[b]pyrrole-2-carboxylic acid]",–,–,–,–,(−) (<2.5 = (−)),(−) (<2.5 = (−))
≤ 0.1,"O=C(O)c1cc2c([nH]1)CCC2Cc1cccc(Br)c1 (single isomer, unassigned) [Compound 64, 4-(3-bromobenzyl)-1,4,5,6-tetrahydrocyclopenta[b]pyrrole-2-carboxylic acid]",–,–,–,–,(−) (<2.5 = (−)),–
≤ 0.1,"O=C(O)c1cc2c([nH]1)CCC2Cc1ccc(F)cc1 (racemic) [Compound 39, 4-(4-fluorobenzyl)-1,4,5,6-tetrahydrocyclopenta[b]pyrrole-2-carboxylic acid]",(+) (2.5-4.9 = (+)),(+) (2.5-4.9 = (+)),–,–,–,–
≤ 0.1,"O=C(O)c1cc2c([nH]1)C(Cc1cccc(Cl)c1)CC2 (single isomer, unassigned) [Compound 123, 6-(3-chlorobenzyl)-1,4,5,6-tetrahydrocyclopenta[b]pyrrole-2-carboxylic acid]",(+) (2.5-4.9 = (+)),(+) (2.5-4.9 = (+)),–,–,–,–
≤ 0.1,"Cc1cc(F)ccc1CC1CCc2[nH]c(C(=O)O)cc21 (single isomer, unassigned) [Compound 53, 4-(4-fluoro-2-methylbenzyl)-1,4,5,6-tetrahydrocyclopenta[b]pyrrole-2-carboxylic acid]",–,–,(+) (2.5-4.9 = (+)),(−) (<2.5 = (−)),–,–
≤ 0.1,"O=C(O)c1cc2c([nH]1)CCC2c1cc(F)cc(F)c1 (single isomer, unassigned) [Compound 100, 4-(3,5-difluorophenyl)-1,4,5,6-tetrahydrocyclopenta[b]pyrrole-2-carboxylic acid]",(+) (2.5-4.9 = (+)),(+) (2.5-4.9 = (+)),–,–,–,–
≤ 0.1,"CCCC1CCc2[nH]c(C(=O)O)cc21 (single isomer, unassigned) [Compound 8, 4-propyl-1,4,5,6-tetrahydrocyclopenta[b]pyrrole-2-carboxylic acid]",(++) (>5 = (++)),(+) (2.5-4.9 = (+)),–,–,–,–
≤ 0.1,"COc1cccc(CC2CCc3[nH]c(C(=O)O)cc32)c1 (single isomer, unassigned) [Compound 68, 4-(3-methoxybenzyl)-1,4,5,6-tetrahydrocyclopenta[b]pyrrole-2-carboxylic acid]",(+) (2.5-4.9 = (+)),(+) (2.5-4.9 = (+)),–,–,–,–
≤ 0.1,"O=C(O)c1cc2c([nH]1)CCC2 [Compound 1, 1,4,5,6-tetrahydro-cyclopenta[b]pyrrole-2-carboxylic acid]",(++) (>5 = (++)),(++) (>5 = (++)),–,–,–,–
